Assay [1] deals with T1, Metabotropic glutamate receptor 2 (Homo sapiens, UniProt Q14416). The assay is described as follows: Ability to displace [3H]LY-341,495 at glutamate-site on Metabotropic glutamate receptor 2; No significant displacement.
In assay [2] the target is T1, Metabotropic glutamate receptor 2. The assay is described as follows: Effective concentration against Metabotropic glutamate receptor 2.
Assay [3] concerns the target Metabotropic glutamate receptor 3 (Homo sapiens, UniProt Q14832). Briefly: Effective concentration against human cloned Metabotropic glutamate receptor 3.

T1 sequence (Q14416 whole entry): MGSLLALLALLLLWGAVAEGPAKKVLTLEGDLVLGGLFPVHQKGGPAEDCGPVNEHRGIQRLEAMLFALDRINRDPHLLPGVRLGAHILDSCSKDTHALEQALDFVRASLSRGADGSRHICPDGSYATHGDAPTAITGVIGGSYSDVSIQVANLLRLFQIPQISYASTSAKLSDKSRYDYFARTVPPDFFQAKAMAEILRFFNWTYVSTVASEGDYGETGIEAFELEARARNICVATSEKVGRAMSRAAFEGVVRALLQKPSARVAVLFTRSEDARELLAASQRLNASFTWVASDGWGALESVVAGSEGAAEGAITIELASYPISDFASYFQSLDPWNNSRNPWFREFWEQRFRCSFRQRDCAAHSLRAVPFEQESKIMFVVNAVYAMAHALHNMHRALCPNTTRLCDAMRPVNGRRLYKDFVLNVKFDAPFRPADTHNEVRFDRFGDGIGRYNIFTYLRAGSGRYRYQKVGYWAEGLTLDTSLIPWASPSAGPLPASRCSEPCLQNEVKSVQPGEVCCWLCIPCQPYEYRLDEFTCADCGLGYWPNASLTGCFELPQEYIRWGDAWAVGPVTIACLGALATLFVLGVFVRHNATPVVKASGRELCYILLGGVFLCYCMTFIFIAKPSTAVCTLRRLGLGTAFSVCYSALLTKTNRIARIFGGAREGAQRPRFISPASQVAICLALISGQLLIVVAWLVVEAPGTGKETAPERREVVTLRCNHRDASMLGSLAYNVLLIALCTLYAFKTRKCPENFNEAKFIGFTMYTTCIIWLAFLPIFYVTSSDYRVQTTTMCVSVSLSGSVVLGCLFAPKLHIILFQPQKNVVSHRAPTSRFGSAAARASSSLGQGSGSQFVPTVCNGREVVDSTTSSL
Metabotropic glutamate receptor 3, sequence (Q14832 whole entry): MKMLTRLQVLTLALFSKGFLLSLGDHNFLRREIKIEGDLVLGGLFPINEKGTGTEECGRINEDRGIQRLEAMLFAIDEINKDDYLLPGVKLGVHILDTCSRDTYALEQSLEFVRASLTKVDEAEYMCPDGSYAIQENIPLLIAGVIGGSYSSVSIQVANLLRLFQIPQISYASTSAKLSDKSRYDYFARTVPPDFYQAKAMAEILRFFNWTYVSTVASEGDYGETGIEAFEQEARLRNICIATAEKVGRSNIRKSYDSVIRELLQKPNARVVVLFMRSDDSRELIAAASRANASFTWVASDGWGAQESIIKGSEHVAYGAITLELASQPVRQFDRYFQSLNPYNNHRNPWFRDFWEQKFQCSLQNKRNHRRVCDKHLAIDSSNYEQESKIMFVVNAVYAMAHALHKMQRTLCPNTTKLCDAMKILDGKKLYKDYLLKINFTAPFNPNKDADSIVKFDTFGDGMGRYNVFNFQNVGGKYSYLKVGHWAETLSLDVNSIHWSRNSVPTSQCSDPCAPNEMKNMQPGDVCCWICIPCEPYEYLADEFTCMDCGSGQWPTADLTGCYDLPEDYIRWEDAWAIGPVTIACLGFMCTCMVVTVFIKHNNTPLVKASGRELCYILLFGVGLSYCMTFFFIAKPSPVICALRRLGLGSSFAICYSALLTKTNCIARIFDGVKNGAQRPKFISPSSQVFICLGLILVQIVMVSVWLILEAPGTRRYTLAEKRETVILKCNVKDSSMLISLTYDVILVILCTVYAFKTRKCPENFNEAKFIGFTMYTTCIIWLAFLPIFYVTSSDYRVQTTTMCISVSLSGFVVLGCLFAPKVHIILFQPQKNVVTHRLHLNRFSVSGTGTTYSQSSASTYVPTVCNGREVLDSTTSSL

For the molecule `COc1ccccc1Oc1ccc(N(Cc2cccnc2)S(=O)(=O)CC(F)(F)F)cc1`, in assay [1], the IC50 is above 100000 nM. In assay [2], this molecule yielded an EC50 of 270 nM.

Consider `CCS(=O)(=O)N(Cc1cccnc1)c1ccc(Oc2ccccc2)cc1`, for which the EC50 in assay [3] was above 12500 nM; in assay [2] it was 1500 nM.

As usually defined, the IC50 is the concentration that gives 50% inhibition. The low end stands for inhibition by little substance, the high end for a need for much substance. A word on the EC50: it is the concentration needed to bring the measured effect to its halfway point. Higher therefore signals a less potent agent.

(Values after ChEMBL document CHEMBL1145846, “Discovery of allosteric potentiators for the metabotropic glutamate 2 receptor: synthesis and subtype selectivity of N-(4-(2-methoxyphenoxy)phenyl)-N-(2,2,2- trifluoroethylsulfonyl)pyrid-3-ylmethylamine” (J Med Chem, 2003).)
